Literature values as cited in paper PMC9227077, “Prediction Models for Brain Distribution of Drugs Based on Biomimetic Chromatographic Data” (Molecules, 2022).
Like-named read-outs stand apart in the source and are kept apart here.

Tests used:
[1] = set-up: method as in ref 23, 24, 27, 29, 45 (a number printed in a supplementary file, which may have a reference list of its own: not looked up in the article's list); conditions: 100% aqueous mobile phase, previously obtained in authors' laboratory, cited from earlier work
[2] = rat brain tissue; cited from earlier work
[3] = cited from earlier work
α1 acid glycoprotein = tested on: α1 acid glycoprotein; set-up: method as in ref 23, 24, 27, 29, 45 (a number printed in a supplementary file, which may have a reference list of its own: not looked up in the article's list); conditions: pH=7.4, 100% aqueous mobile phase; previously obtained in authors' laboratory; cited from earlier work
human serum albumin = tested on: human serum albumin; set-up: method as in ref 45 (a number printed in a supplementary file, which may have a reference list of its own: not looked up in the article's list); conditions: cited from earlier work
[4] = most values in rats, average if more than one value; cited from earlier work
[5] = experimental, cited from earlier work; for logP: octanol-water partition coefficient
[6] = total brain/total plasma, preferably rat studies
[7] = pH=7.4, isocratic, 10% acetonitrile, available for 37 compounds, remaining calculated by equation
[8] = literature Kp,brain converted to logBB

Structure (SMILES)	logkw IAM ([1]; pH=7.4, PBS)	Kp,uu,brain [2]	Kp,brain [3, 6]	logkwAGP (α1 acid glycoprotein)	logk10,HSA (human serum albumin)	fu,brain [4]	logP [5]	logD ([5]; pH=5.0, octanol-water)	logD ([5]; pH=7.4, octanol-water)	logk10,HSA (human serum albumin; [7])	logkw IAM ([1]; pH=5.0, PBS)	Kp,brain ([3]; rat, in vivo)	logBB exper. ([3]; rat, in vivo)	logBB exper. [3, 8]
Cc1cc(=O)n(-c2ccccc2)n1C [Antipyrine]	0.45	0.71	0.80	0.88	-1.04	0.862	–	–	–	–	–	–	–	–
OCCN1CCN(CCCN2c3ccccc3Sc3ccc(Cl)cc32)CC1 [Perphenazine]	3.67	–	–	3.19	–	0.004	4.20	1.61	3.65	1.24	–	–	–	–
CC(C)Cc1ccc(C(C)C(=O)O)cc1 (stereo not shown) [Ibuprofen]	0.87	0.56	–	–	–	–	–	2.15	–	–	1.55	–	–	–
NC(=O)CN1CCCC1=O [Piracetam]	–	–	1.00	–	–	–	–	-1.54	-1.54	-1.32	–	–	–	–
CN1C(=O)CN=C(c2ccccc2)c2cc(Cl)ccc21 [Diazepam]	2.12	–	–	–	–	–	–	–	–	–	2.12	–	–	–
CN1C(=O)CN=C(c2ccccc2F)c2cc([N+](=O)[O-])ccc21 [Flunitrazepam]	1.79	–	–	1.44	0.26	–	–	–	–	–	–	–	–	–
CCCC(C)C1(CC)C(=O)NC(=O)NC1=O (stereo not shown) [Pentobarbital]	1.29	–	–	1.35	–	–	2.07	1.88	1.95	-0.04	1.40	1.32	0.12	–
Cc1c(N(C)C)c(=O)n(-c2ccccc2)n1C [Aminopyrine]	–	–	1.00	–	–	–	–	–	–	-0.30	–	–	–	0.00
CC(CN1c2ccccc2Sc2ccccc21)N(C)C (stereo not shown) [Promethazine]	2.78	–	6.67	2.50	–	–	–	1.59	2.79	1.05	2.18	–	–	0.824
CNCCC=C1c2ccccc2CCc2ccccc21 [Nortriptyline]	2.83	–	–	2.30	–	0.006	4.04	1.16	1.70	0.82	2.12	–	–	–
C=C[C@H]1C[N@@]2CC[C@H]1C[C@@H]2[C@@H](O)c1ccnc2ccc(OC)cc12 [Quinidine]	2.34	0.03	–	1.71	0.29	–	–	–	–	–	–	–	–	–
OCCOCCN1CCN(C(c2ccccc2)c2ccc(Cl)cc2)CC1 (stereo not shown) [Hydroxyzine]	3.01	–	2.45	–	–	0.013	–	0.73	3.01	0.60	2.23	–	–	0.39
O=C(CCCN1CCC(O)(c2ccc(Cl)cc2)CC1)c1ccc(F)cc1 [Haloperidol]	2.65	–	–	–	–	0.008	–	–	–	0.77	1.86	–	–	–
CN(C)CCC=C1c2ccccc2COc2ccccc21 [Doxepin]	2.50	–	–	2.30	–	–	3.96	0.86	2.22	0.56	1.98	–	–	–
CC(C)=CCN1CCC2(C)c3cc(O)ccc3CC1C2C (stereo not shown) [Pentazocine]	2.06	–	3.51	–	–	–	4.64	1.24	4.02	1.09	1.70	–	–	0.545
CN1C(=O)C(O)N=C(c2ccccc2)c2cc(Cl)ccc21 (stereo not shown) [Temazapam]	1.76	–	–	–	–	–	–	–	–	0.28	1.76	–	–	–
O=c1n(CCCN2CCN(c3cccc(Cl)c3)CC2)nc2ccccn12 [Trazodone]	–	–	–	2.36	–	0.071	–	2.89	3.70	–	–	–	–	–
Cn1c(=O)c2[nH]cnc2n(C)c1=O [Theophylline]	-0.08	–	–	–	–	–	–	–	–	–	-0.26	–	–	–
CN(C)CCCN1c2ccccc2Sc2ccc(Cl)cc21 [Chlorpromazine]	–	–	–	2.30	–	0.003	–	–	–	1.34	–	–	–	–
